Assay results from ChEMBL document CHEMBL3621159, “Discovery of an orally active subtype-selective HDAC inhibitor, chidamide, as an epigenetic modulator for cancer treatment” (Medchemcomm, 2014).

Columns and labels:
[1] = Cmax in patient at 32.5 mg, po administered as single dose; type: ADME, organism-based; parameters: dose 32.5 mg, route oral; conditions: human, in vivo
[2] = AUC in patient at 32.5 mg, po administered as single dose; type: ADME, organism-based; conditions: human, in vivo
[3] = Cytotoxicity against human hematopoietic malignant cells assessed as growth inhibition; type: functional
[4] = Cytotoxicity against human solid tumor cells assessed as growth inhibition; type: functional
[5] = Half life in patient at 25 to 50 mg, administered as single dose; type: ADME, organism-based; conditions: human, in vivo

Cmax [1]: 312 nM | AUC [2]: 2.24 µM·h | half-life [5]: 24 h
Compound: Nc1cc(F)ccc1NC(=O)c1ccc(CNC(=O)/C=C/c2cccnc2)cc1 [TUCIDINOSTAT]
GI50 [3]: 1.86 µM | GI50 [4]: 6.65 µM
